# US20210290648A1, “Potentiation of B-Lactam Antibiotics and B-Lactam/B-Lactamase Inhibitor Combinations Against Multidrug and Extensively Drug-Resistant Pseudomonas Aeruginosa Using Non-Ribosomal Tobramycin-Cyclam Conjugates” (University of Manitoba, priority 2018, published 2021)
# Like-named read-outs stand apart in the source and are kept apart here.
# Assays:
# [1] = test system: K. pneumoniae ATCC 13883; experiment: MIC, microbroth dilution; assay type: cell-based, Klebsiella pneumoniae
# Procedure: (§1) Antimicrobial Susceptibility Assay. The in vitro antimicrobial activity of all compounds/antibiotics against a panel of bacteria was evaluated by microbroth dilution method in accordance with the Clinical and Laboratory Standards Institute (CLSI) guidelines. Overnight grown bacterial cultures were diluted in saline to achieve a 0.5 McFarland turbidity, followed by 1:50 dilution in Mueller-Hinton broth (MHB) for inoculation to a final concentration of approximately 5×10^5CFU/mL. The antimicrobial agents were 2-fold serially diluted in MHB in a 96-well plate and incubated at 37° C. with equal volumes of inoculum for 18 h. The lowest concentration that prevented the visible growth of bacteria was defined as the MIC for each antimicrobial agent. The broth with or without bacterial cells was used as positive or negative control, respectively.
# [2] = test system: human liver carcinoma (HepG2) cells; experiment: Cytotoxicity, PrestoBlue cell viability assay; assay type: cell-based
# Procedure: Cytotoxicity Assay. Human embryonic kidney cells (HEK293) and HepG2 cells were grown in Dulbecco's modified eagle's medium supplemented with 10% fetal bovine serum in a humidified […] incubator at 37° C. Equal number of cells (100 μl of media containing ˜8000 cells) were dispersed into 96-well plates and wells with medium but no cells were used as blanks. After incubating for 24 h, […] varying concentrations of test compounds (at twice the desired concentrations) were added to each well, including the blanks. The treated cells were then incubated further for 48 h, after which PrestoBlue reagent was added to each well. The plates were then incubated for an additional hour on a nutator mixer in a 5% CO2 incubator. The fluorescence was read at […] on a SpectraMax M2 plate reader (Molecular Devices, USA). Cell viability were interpreted as previously described (55, 77). The values of blank were subtracted from each value, and the viability values of the treated samples relative to the controls with vehicle were calculated. The values for the plots are the means±standard deviation.
# [3] = test system: E. coli ATCC 25922; experiment: MIC, microbroth dilution; assay type: cell-based
# Procedure: as §1
# [4] = test system: MRSE CAN-ICU 61589 (CAZ >32); experiment: MIC, microbroth dilution; assay type: cell-based; conditions: standalone
# Procedure: as §1
# [5] = test system: MSSE CANWARD-2008 81388; experiment: MIC, microbroth dilution; assay type: cell-based; conditions: standalone
# Procedure: as §1
# [6] = test system: P. aeruginosa CANWARD-2011 96846 (GEN-R, TOB-R); experiment: MIC, microbroth dilution; assay type: cell-based, Pseudomonas aeruginosa; conditions: standalone
# Procedure: as §1
# [7] = test system: P. aeruginosa ATCC 27853; experiment: MIC, microbroth dilution; assay type: cell-based, Pseudomonas aeruginosa
# Procedure: as §1
# [8] = test system: P. aeruginosa CAN-ICU 62308 (GEN-R); experiment: MIC, microbroth dilution; assay type: cell-based, Pseudomonas aeruginosa; conditions: standalone
# Procedure: as §1
# [9] = test system: E. faecalis ATCC 29212; experiment: MIC, microbroth dilution; assay type: cell-based
# Procedure: as §1
# [10] = test system: E. coli CAN-ICU 61714 (GEN-R); experiment: MIC, microbroth dilution; assay type: cell-based; conditions: standalone
# Procedure: as §1
# [11] = test system: MRSA ATCC 33592; experiment: MIC, microbroth dilution; assay type: cell-based; conditions: standalone
# Procedure: as §1
# [12] = test system: E. coli CAN-ICU 63074 (AMK 32); experiment: MIC, microbroth dilution; assay type: cell-based; conditions: standalone
# Procedure: as §1
# [13] = test system: S. pneumoniae ATCC 49619; experiment: MIC, microbroth dilution; assay type: cell-based
# Procedure: as §1
# [14] = test system: S. maltophilia CAN-ICU 62584; experiment: MIC, microbroth dilution; assay type: cell-based
# Procedure: as §1
# [15] = test system: E. coli CANWARD-2011 97615 (GEN-R, TOB-R, CIP-R) aac(3′)iia; experiment: MIC, microbroth dilution; assay type: cell-based
# Procedure: as §1
# [16] = test system: A. baumannii CAN-ICU 63169; experiment: MIC, microbroth dilution; assay type: cell-based
# Procedure: as §1
# [17] = test system: S. aureus ATCC 29213; experiment: MIC, microbroth dilution; assay type: cell-based
# Procedure: as §1
# [18] = test system: E. faecium ATCC 27270; experiment: MIC, microbroth dilution; assay type: cell-based
# Procedure: as §1
# [19] = test system: human embryo kidney (HEK293) cells; experiment: Cytotoxicity, PrestoBlue cell viability assay; assay type: cell-based; conditions: at about 12 μM (6.5 μg/mL), positive control
# Procedure: Cytotoxicity Assay. Human embryonic kidney cells (HEK293) and HepG2 cells were grown in Dulbecco's modified eagle's medium supplemented with 10% fetal bovine serum in a humidified 5% atmospheric incubator at 37° C. […] The fluorescence was read at […] on a SpectraMax M2 plate reader (Molecular Devices, USA). […] The values of blank were subtracted from each value, and the viability values of the treated samples relative to the controls with vehicle were calculated. The values for the plots are the means±standard deviation.
# [20] = test system: panel of Gram-positive and Gram-negative bacteria; experiment: MIC, panel of Gram-positive and Gram-negative bacteria; assay type: cell-based; conditions: standalone; susceptible strains of the panel; read-out: MIC values against susceptible strains
# Procedure: as §1
# [21] = test system: WT P. aeruginosa PAO1; experiment: Checkerboard combination study / MIC; assay type: cell-based, Pseudomonas aeruginosa
# [22] = test system: MDR/XDR P. aeruginosa clinical isolates; experiment: MIC and checkerboard, panel of clinical isolates; assay type: cell-based, Pseudomonas aeruginosa
# [23] = Pseudomonas aeruginosa, read-out: MIC
# [24] = Escherichia coli, read-out: MIC
compound,measurement,setting,value
5-O-(Dodecylcyclam)-tobramycin.9HCl [Compound 3],MIC,[1]; standalone,64 µg/mL
same,cell viability,"[2]; highest concentration 50 μM, 48 h",about 60%
same,MIC,[3]; standalone,64 µg/mL
same,MIC,[4],32 µg/mL
same,MIC,[5],16 µg/mL
"NCC1OC(OC2C(N)CC(N)C(OC3OC(CO)C(O)C(N)C3O)C2OCCCCN2CCCNCCNCCCNCC2)C(N)CC1O.O=C(O)C(F)(F)F.O=C(O)C(F)(F)F.O=C(O)C(F)(F)F.O=C(O)C(F)(F)F.O=C(O)C(F)(F)F.O=C(O)C(F)(F)F.O=C(O)C(F)(F)F.O=C(O)C(F)(F)F.O=C(O)C(F)(F)F (centres unmarked) [Compound 1, 5-O-(Butylcyclam)-tobramycin.9TFA]",MIC,[6],>128 µg/mL
same,MIC,[7]; standalone,>128 µg/mL
same,MIC,[8],>128 µg/mL
same,MIC,[1]; standalone,32 µg/mL
same,MIC,[9]; standalone,>128 µg/mL
same,MIC,[3]; standalone,64 µg/mL
same,MIC,[10],128 µg/mL
same,MIC,[11],64 µg/mL
same,MIC,[12],>128 µg/mL
same,MIC,[4],64 µg/mL
same,MIC,[13]; standalone,>128 µg/mL
same,MIC,[5],16 µg/mL
same,MIC,[14]; standalone,>128 µg/mL
same,MIC,"[15]; standalone, E. coli CANWARD-2011 97615 (GEN-R, TOB-R, CIP-R)",>128 µg/mL
same,MIC,[16]; standalone,>128 µg/mL
same,MIC,[17]; standalone,64 µg/mL
same,MIC,[18]; standalone,>128 µg/mL
COc1cccc2c1C(=O)c1c(O)c3c(c(O)c1C2=O)C[C@@](O)(C(=O)CO)C[C@@H]3O[C@H]1C[C@H](N)[C@H](O)[C@H](C)O1 [Doxorubicin],cell viability,"[2]; at about 12 μM (6.5 μg/mL), positive control",less than 10%
same,cytotoxicity of cells reduced to,[19],less than 10%
NC[C@H]1O[C@H](O[C@H]2[C@H](O)[C@@H](O[C@H]3O[C@H](CO)[C@@H](O)[C@H](N)[C@H]3O)[C@H](N)C[C@@H]2N)[C@H](N)C[C@@H]1O [Tobramycin],MIC,[20],≤ 2 µg/mL
same,MIC,"[21]; Pseudomonas aeruginosa, PAO1, 18 h, antibiotic alone, WT PAO1 (Table 2), read-out: MIC alone",1 µg/mL
same,FICI in the presence of ≤10 μM of 1,"[21]; antibiotic + compound 1, WT PAO1",1.01
same,MIC of Antibiotics in the presence of ≤10 μM of 1,"[21]; antibiotic + compound 1 ≤10 μM, WT PAO1",1 µg/mL
same,FICI in the presence of ≤10 μM of 2,"[21]; antibiotic + compound 2, WT PAO1",1.00
same,MIC of Antibiotics in the presence of ≤10 μM of 2,"[21]; antibiotic + compound 2 ≤10 μM, WT PAO1",1 µg/mL
same,FICI in the presence of ≤10 μM of 3,"[21]; antibiotic + compound 3, WT PAO1",1.01
same,MIC of Antibiotics in the presence of ≤10 μM of 3,"[21]; antibiotic + compound 3 ≤10 μM, WT PAO1",1 µg/mL
same,FICI with compounds 1-3,"[21]; antibiotic + compounds 1-3 at ≤10 μM (≤16 μg/mL), WT PAO1",1
same,FICI with aztreonam or meropenem,"[21]; tobramycin + aztreonam or meropenem, WT",0.75-1.00
same,MIC,[6]; [23],256 µg/mL
same,MIC,"[7]; Pseudomonas aeruginosa, ATCC27853, standalone, read-out: MIC",1 µg/mL
same,MIC,[8]; [23],16 µg/mL
same,MIC,"[1]; Klebsiella pneumoniae, ATCC13883, standalone, read-out: MIC",≤ 0.25 µg/mL
same,FICI with aztreonam or meropenem,[22]; tobramycin-resistant MDR/XDR isolates,0.56-0.75
same,FICI with aztreonam or meropenem,[22]; tobramycin-susceptible MDR,0.75
same,MIC,"[9]; Enterococcus faecalis, ATCC29212, standalone, read-out: MIC",8 µg/mL
same,MIC,"[3]; Escherichia coli, ATCC25922, standalone, read-out: MIC",0.5 µg/mL
same,MIC,[10]; [24],8 µg/mL
same,MIC,"[11]; Staphylococcus aureus, read-out: MIC",0.5 µg/mL
same,MIC,[12]; [24],8 µg/mL
same,MIC,"[4]; Staphylococcus epidermidis, read-out: MIC",2 µg/mL
same,MIC,"[13]; Streptococcus pneumoniae, ATCC49619, standalone, read-out: MIC",2 µg/mL
same,MIC,[5]; read-out: MIC,≤ 0.25 µg/mL
same,MIC,"[14]; Stenotrophomonas maltophilia, CANICU62584, standalone, read-out: MIC",> 512 µg/mL
same,MIC,[15]; Escherichia coli,128 µg/mL
same,MIC,"[16]; Acinetobacter baumannii, CANICU63169, standalone, read-out: MIC",32 µg/mL
same,MIC,"[17]; Staphylococcus aureus, ATCC29213, standalone, read-out: MIC",0.5 µg/mL
same,MIC,"[18]; Enterococcus faecium, ATCC27270, standalone, read-out: MIC",16 µg/mL
